In the supplement of paper PMC13380429:

Columns and labels:
Settings in all cases: 72 h
[1] = system: Vero E6; test: drug sensitivity score (DSS) for viability; higher = more toxic; extreme values may be limits of the assay
[2] = system: Caco-2; test: as above
[3] = system: HepG2; test: as above
[4] = system: Calu-3; test: as above
[5] = system: U2OS; test: as above
[6] = system: Vero E6; test: cell viability relative to DMSO; higher = less toxic
[7] = system: Caco-2; test: as above
[8] = system: HepG2; test: as above
[9] = system: Calu-3; test: as above
[10] = system: U2OS; test: as above
[11] = system: Vero E6; test: relative viability EC50 (midpoint between 100% and the lowest measured viability); higher = less toxic
[12] = system: Caco-2; test: as above
[13] = system: HepG2; test: as above
[14] = system: Calu-3; test: as above
[15] = system: U2OS; test: as above

Row | SMILES | drug sensitivity score [1] | drug sensitivity score [2] | drug sensitivity score [3] | drug sensitivity score [4] | drug sensitivity score [5] | cell viability ([6]; 1 nM) | cell viability ([6]; 10 nM) | cell viability ([6]; 100 nM) | cell viability ([6]; 1000 nM) | cell viability ([6]; 10000 nM) | cell viability ([7]; 1 nM) | cell viability ([7]; 10 nM) | cell viability ([7]; 100 nM) | cell viability ([7]; 1000 nM) | cell viability ([7]; 10000 nM) | cell viability ([8]; 1 nM) | cell viability ([8]; 10 nM) | cell viability ([8]; 100 nM) | cell viability ([8]; 1000 nM) | cell viability ([8]; 10000 nM) | cell viability ([9]; 1 nM) | cell viability ([9]; 10 nM) | cell viability ([9]; 100 nM) | cell viability ([9]; 1000 nM) | cell viability ([9]; 10000 nM) | cell viability ([10]; 1 nM) | cell viability ([10]; 10 nM) | cell viability ([10]; 100 nM) | cell viability ([10]; 1000 nM) | cell viability ([10]; 10000 nM) | relative viability EC50 [11] | relative viability EC50 [12] | relative viability EC50 [13] | relative viability EC50 [14] | relative viability EC50 [15]
1 | O=C(O)CCCc1c[nH]c2ccccc12 [3-indolebutyric-acid] | 0 | 1.2 | 0 | 0 | 0 | 102% | 101% | 101% | 97.2% | 94.2% | 99.4% | 88.5% | 89.6% | 92.5% | 91.7% | 98.3% | 99.4% | 92.8% | 87.9% | 101% | 99.6% | 100% | 97.7% | 100% | 99.3% | 102% | 102% | 101% | 95% | 99.9% | > 10 µM | > 10 µM | > 10 µM | > 10 µM | > 10 µM
2 | C=CCNc1ncnc2ccc(Br)cc12 [SMER-28] | 0 | 0 | 0.6 | 0.4 | 0 | 93.6% | 98.3% | 95.8% | 99.8% | 101% | 99.5% | 93.4% | 98.7% | 103% | 91.2% | 92.3% | 98% | 102% | 102% | 78.8% | 101% | 103% | 96.1% | 100% | 82.7% | 101% | 97% | 102% | 96.9% | 101% | > 10 µM | > 10 µM | > 10 µM | > 10 µM | > 10 µM
3 | CCS(=O)(=O)c1cccc(-c2cc(C(=O)NC3CCN(C)CC3)c(C)c3[nH]c4ncc(C)cc4c23)c1 [TAK-901] | 1.1 | 6.7 | 12.7 | 8 | 8.9 | 105% | 100% | 100% | 97% | 78.7% | 98.4% | 99.7% | 90.4% | 72% | 36.5% | 94.1% | 104% | 76.5% | 48.1% | 15.7% | 108% | 100% | 95.5% | 69.9% | 21.3% | 98.3% | 98.5% | 98.9% | 73.6% | 9.3% | > 10 µM | 1.06 µM | 0.439 µM | 1.28 µM | 1.43 µM
4 | CC[C@H](C)[C@H]1O[C@]2(CC[C@@H]1C)C[C@@H]1C[C@@H](C/C=C(\C)[C@@H](O[C@H]3C[C@H](OC)[C@@H](O[C@H]4C[C@H](OC)[C@@H](O)[C@H](C)O4)[C@H](C)O3)[C@@H](C)/C=C/C=C3\CO[C@@H]4[C@H](O)C(C)=C[C@@H](C(=O)O1)[C@]34O)O2 [ivermectin] | 0 | 0 | 0.1 | 0 | 0 | 107% | 103% | 106% | 103% | 87.8% | 94.7% | 90.3% | 94.2% | 95.8% | 108% | 96.2% | 98.5% | 108% | 107% | 85% | 101% | 107% | 88.1% | 97.1% | 93.6% | 104% | 95.1% | 99.4% | 96.1% | 93.9% | > 10 µM | > 10 µM | > 10 µM | > 10 µM | > 10 µM
5 | O=C(O)[C@H]1CCCN(CCC=C(c2ccccc2)c2ccccc2)C1 (racemic) | 0 | 0 | 0 | 0 | 0 | 99.6% | 100% | 101% | 102% | 103% | 95.9% | 98.7% | 102% | 95.7% | 94.9% | 107% | 94.5% | 83.9% | 108% | 99.2% | 96.8% | 98.5% | 111% | 90.9% | 111% | 98.6% | 98.2% | 98.1% | 102% | 91.3% | > 10 µM | > 10 µM | > 10 µM | > 10 µM | > 10 µM
6 | Nc1nc2ccc(Cl)cc2c2nc(-c3ccco3)nn12 | 0.2 | 2.2 | 13.8 | 0.4 | 0 | 96.1% | 97.6% | 94.2% | 100% | 85.9% | 100% | 91.6% | 104% | 88.1% | 76.7% | 91.5% | 104% | 87.7% | 33.5% | 23.2% | 109% | 92.8% | 96.9% | 98.5% | 84.9% | 102% | 100% | 103% | 97.7% | 98.3% | > 10 µM | > 10 µM | 0.297 µM | > 10 µM | > 10 µM
7 | NCCOB(c1ccccc1)c1ccccc1 [2-APB] | 0 | 0 | 0 | 0 | 0 | 110% | 108% | 97.4% | 101% | 105% | 91% | 93.3% | 98.5% | 94.3% | 104% | 96.8% | 112% | 91.2% | 93.4% | 92.1% | 101% | 96.3% | 99.1% | 105% | 103% | 96% | 95.6% | 100% | 100% | 104% | > 10 µM | > 10 µM | > 10 µM | > 10 µM | > 10 µM
